# In paper PMC12608337 (Molecules, 2025):
# Columns and labels:
# Spodoptera littoralis = settings: cited from earlier work
# wt-YFV = type: cell-based, yellow fever virus
# in vitro = settings: African green monkey (Cercopithecus aethiops)
# [1] = system: herpes simplex virus (type 1); settings: cited from earlier work
# [2] = system: dengue virus type 2 (DENV-2); settings: cited from earlier work
# Zika virus (ZIKV) = settings: cited from earlier work
# ZIKV = settings: mouse, in vivo; cited from earlier work
Compound,antiviral activity against wt-YFV (wt-YFV),CC50 (in vitro),also measured
"COc1cc2c(cc1OC)[C@@H]1[C@H](O)[C@@H](OC)[C@H](OC(C)=O)C3=CCN(C2)[C@H]31 [3-O-acetyl-narcissidine, 3-O-acetylnarcissidine]",,,antifeedant effect (Spodoptera littoralis): exhibited an antifeedant effect
"COc1c2c(cc3c1OCO3)[C@@]13CCN(C2)[C@@H]1CC[C@H](O)[C@@H]3O [Bulbisine, bulbisine]",did not reveal significant antiviral activity,0.123 mM,
"C[n+]1cccc(C(=O)[O-])c1 [Trigonelline, trigonelline]",did not reveal significant antiviral activity,~1 mM,inhibition of survival of herpes simplex virus (type 1) [1]: significantly inhibited the survival
N=C(N)NCCC[C@H](N)C(=O)O [arginine],did not reveal significant antiviral activity,~1 mM,
NC(=O)C[C@H](N)C(=O)O [asparagine],did not reveal significant antiviral activity,~1 mM,
N[C@@H](CCC(=O)O)C(=O)O [glutamic acid],did not reveal significant antiviral activity,,
O[C@H]1[C@H]2c3cc4c(cc3CN3CCC(=C[C@@H]1O)[C@H]23)OCO4 [lycorine],,,antiviral activity against DENV-2 [2]: exhibits antiviral activity; antiviral activity against ZIKV (Zika virus (ZIKV)): exhibits antiviral activity; mortality (ZIKV): reduced mortality; viral load in the blood (ZIKV): lower viral load in the blood
N[C@@H](Cc1c[nH]c2ccccc12)C(=O)O [tryptophan],did not reveal significant antiviral activity,0.578 mM,
